Laboratory results reported in publication PMC10847306, “The antibacterial activity and mechanism of a novel peptide MR-22 against multidrug-resistant Escherichia coli” (Frontiers in Cellular and Infection Microbiology, 2024).

Columns and labels:
[1] = test system: E. coli ATCC 25922 and clinically drug resistant isolated strains; assay: microbe, parasite or virus in culture; assay type: cell-based, Escherichia coli; settings: 18 h
Experimental: (§1) The MIC were determined by a micro dilution method in Mueller-Hinton broth (MHB) ([Cuenca-Estrella et al., 2010]). The final concentration of bacterial suspension in MHB were 1.0×10^6 CFU/mL. The final concentration of MR-22 ranged 1 ~ 256 μg/mL in 96 wells plate broth at 37°C for 16~18 h. Imipenem was employed as positive control, bacterial grown without treatment as negative control and MHB as blank control. MIC determination was performed by reading the OD600 nm. Take 100 μL samples in holes that have never seen bacterial growth and place them on the LB agar board. The concentration of MR-22 with no bacterial growth was defined as the MBC.

[2] = test system: E. coli ATCC 25922 and E19; assay: Reactive oxygen species measurement (DCFH-DA); assay type: cell-based, Escherichia coli; settings: DCFH-DA 10 μM, MR-22 1, 2, 4 × MIC, 1 h, 37°C; ex 488/em 525 nm
Experimental: The fluorescence probe 2’,7’-dichlorodihydrofluorescein diacetate (DCFH-DA) was used to measure the intracellular generation of ROS. The bacterial suspension (1.0 × 10^6 CFU/mL) were mixed with DCFH-DA (the final concentration of 10 μM) and incubated for at 37°C 30 min in the dark. After incubation, the suspensions were treated with MR-22 (1, 2, 4 × MIC) at the indicated concentrations for 1 h at 37°C. The fluorescence intensity was evaluated using a multi-function fluorescent enzyme marker with an excitation wavelength of 488 nm and an emission wavelength of 525 nm. N-acetylcysteine (NAC) at a concentration of 24 mM was employed as a control agent for the purpose of quenching the production of reactive oxygen species.

[3] = test system: E. coli clinical strain E08; assay: microbe, parasite or virus in culture; settings: clinical strain E08, 18 h
Experimental: (§2) The clinical strains used in this study were obtained from a tertiary healthcare facility located in Guiyang, a city situated within the Guizhou Province of China. The E. coli ATCC 25922 was obtained from the Key and Characteristic Laboratory of Modern Pathogen Biology at Guizhou Medical University in Guiyang, China. All strains were stored at –80°C in LB medium and routinely cultured at LB medium at 37°C.
as §1

[4] = test system: E. coli clinical strain E16; assay: microbe, parasite or virus in culture; settings: clinical strain E16, 18 h
Experimental: as §2, §1

[5] = test system: E. coli clinical strain E01; assay: microbe, parasite or virus in culture; settings: clinical strain E01, 18 h
Experimental: as §2, §1

[6] = test system: E. coli clinical strain E14; assay: microbe, parasite or virus in culture; settings: clinical strain E14, 18 h
Experimental: as §2, §1

[7] = test system: E. coli clinical strain E09; assay: microbe, parasite or virus in culture; settings: clinical strain E09, 18 h
Experimental: as §2, §1

[8] = test system: E. coli clinical strain E19; assay: microbe, parasite or virus in culture; settings: clinical strain E19, 18 h
Experimental: as §2, §1

[9] = test system: E. coli clinical strain E18; assay: microbe, parasite or virus in culture; settings: clinical strain E18, 18 h
Experimental: as §2, §1

[10] = test system: E. coli clinical strain E11; assay: microbe, parasite or virus in culture; settings: clinical strain E11, 18 h
Experimental: as §2, §1

[11] = test system: E. coli clinical strain E15; assay: microbe, parasite or virus in culture; settings: clinical strain E15, 18 h
Experimental: as §2, §1

[12] = test system: E. coli clinical strain E10; assay: microbe, parasite or virus in culture; settings: clinical strain E10, 18 h
Experimental: as §2, §1

[13] = test system: E. coli clinical strain E20; assay: microbe, parasite or virus in culture; settings: clinical strain E20, 18 h
Experimental: as §2, §1

[14] = test system: E. coli clinical strain E04; assay: microbe, parasite or virus in culture; settings: clinical strain E04, 18 h
Experimental: as §2, §1

[15] = test system: E. coli clinical strain E02; assay: microbe, parasite or virus in culture; settings: clinical strain E02, 18 h
Experimental: as §2, §1

[16] = test system: E. coli clinical strain E06; assay: microbe, parasite or virus in culture; settings: clinical strain E06, 18 h
Experimental: as §2, §1

[17] = test system: E. coli clinical strain E12; assay: microbe, parasite or virus in culture; settings: clinical strain E12, 18 h
Experimental: as §2, §1

[18] = test system: E. coli clinical strain E21; assay: microbe, parasite or virus in culture; settings: clinical strain E21, 18 h
Experimental: as §2, §1

[19] = test system: E. coli clinical strain E07; assay: microbe, parasite or virus in culture; settings: clinical strain E07, 18 h
Experimental: as §2, §1

[20] = test system: E. coli clinical strain E22; assay: microbe, parasite or virus in culture; settings: clinical strain E22, 18 h
Experimental: as §2, §1

[21] = test system: E. coli clinical strain E03; assay: microbe, parasite or virus in culture; settings: clinical strain E03, 18 h
Experimental: as §2, §1

[22] = test system: E. coli clinical strain E17; assay: microbe, parasite or virus in culture; settings: clinical strain E17, 18 h
Experimental: as §2, §1

[23] = test system: E. coli clinical strain E13; assay: microbe, parasite or virus in culture; settings: clinical strain E13, 18 h
Experimental: as §2, §1

[24] = test system: E. coli clinical strain E05; assay: microbe, parasite or virus in culture; settings: clinical strain E05, 18 h
Experimental: as §2, §1

[25] = test system: E. coli ATCC 25922 and E19; assay: Intracellular ATP determination; assay type: cell-based, Escherichia coli; settings: MR-22 1, 2, 4 × MIC, 1 h, 37°C; compared to the control group; dose-dependent
Experimental: The MR-22 solution was added to bacterial suspensions (1.0 × 10^6 CFU/mL) at different final concentrations (1, 2, 4 × MIC) incubated at 37°C for 1 h. The mixture was subsequently centrifuged and the resulting supernatants were collected. Finally, the intracellular ATP concentration was determined using an ATP Assay Kit (Beyotime, China) according to the manufacturer’s instruction.

H-MAKRRKKAKKKAKKAKKRRRRR-NH2 [MR-22]
MIC over all strains tested [1]: 4 ~ 32 μg/mL
ROS accumulation in bacteria [2]: increased significantly
MBC [3]: 8 µg/mL
MIC [3]: 8 µg/mL
MBC [4]: 16 µg/mL
MIC [4]: 16 µg/mL
MBC [5]: 16 µg/mL
MIC [5]: 16 µg/mL
MBC [6]: 16 µg/mL
MIC [6]: 16 µg/mL
MBC [7]: 16 µg/mL
MIC [7]: 16 µg/mL
MBC [8]: 32 µg/mL
MIC [8]: 32 µg/mL
MBC [9]: 8 µg/mL
MIC [9]: 8 µg/mL
MBC [10]: 16 µg/mL
MIC [10]: 16 µg/mL
MBC [11]: 4 µg/mL
MIC [11]: 4 µg/mL
MBC [12]: 16 µg/mL
MIC [12]: 16 µg/mL
MBC [13]: 8 µg/mL
MIC [13]: 8 µg/mL
MBC [14]: 8 µg/mL
MIC [14]: 8 µg/mL
MBC [15]: 16 µg/mL
MIC [15]: 16 µg/mL
MBC [16]: 8 µg/mL
MIC [16]: 8 µg/mL
MBC [17]: 16 µg/mL
MIC [17]: 16 µg/mL
MBC [18]: 8 µg/mL
MIC [18]: 8 µg/mL
MBC [19]: 16 µg/mL
MIC [19]: 16 µg/mL
MBC [20]: 16 µg/mL
MIC [20]: 16 µg/mL
MBC [21]: 16 µg/mL
MIC [21]: 16 µg/mL
MBC [22]: 32 µg/mL
MIC [22]: 32 µg/mL
MBC [23]: 16 µg/mL
MIC [23]: 16 µg/mL
MBC [24]: 16 µg/mL
MIC [24]: 16 µg/mL
intracellular ATP concentration [25]: significantly reduced
